{"source": "patent US20240262806A1", "about": "“INHIBITORS OF NLRP3” (PTC THERAPEUTICS, INC., priority 2021, published 2024)", "system": "NLRP3 inflammasome", "assay": "IL-1β Secretion Assay (NLRP3-dependent IL-1β secretion in PMA-differentiated THP-1 cells, nigericin activation, HTRF)", "assay_type": "cell-based", "settings": "Homo sapiens, THP-1, THP-1 cells, 100 ng/mL PMA 24 h, compound 20 h, 2.5 μM Nigericin 3 h; read-out: IC50 IL-1β Inhibition", "in_short": "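PMA-differentiated THP-1 cells in RPMI with 5% FBS were treated with compounds at 7 concentrations in threefold DMSO dilutions. NLRP3 was activated with nigericin and secreted IL-1β measured by HTRF. IC50 from a logistic fit of percent inhibition versus concentration.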"}
{"smiles": "Cc1cc2c(-c3ccc(C(F)(F)F)cc3O)nnc(N[C@@H]3CCCN(C)C3)n2n1", "note": "[Compound I-329, (R)-2-(2-methyl-7-((1-methylpiperidin-3-yl)amino)pyrazolo[1,5-d][1,2,4]triazin-4-yl)-5-(trifluoromethyl)phenol]", "values": [{"measurement": "IC50", "value": "< 1", "unit": "nM"}]}
{"smiles": "Cc1cccc(-c2nnc(N[C@@H]3CCCN(C)C3)c3ccccc23)c1O", "note": "[Compound I-27]", "values": [{"measurement": "IC50", "value": "< 1", "unit": "nM"}]}
{"smiles": "Oc1cc(C(F)(F)F)ccc1-c1nnc(NC[C@@H]2CCCN2)c2ccccc12", "note": "[Compound I-68]", "values": [{"measurement": "IC50", "value": "< 1", "unit": "nM"}]}
{"smiles": "CN1CCC[C@@H](Nc2nnc(-c3ccc(C4CC4)cc3C(F)(F)F)c3cccn23)C1", "note": "[Compound I-534]", "values": [{"measurement": "IC50", "value": "< 1", "unit": "nM"}]}
{"smiles": "CC(C)N1CCC[C@@H](Nc2nnc(-c3ccc(C(F)(F)F)cc3O)c3c2CCCC3)C1", "note": "[Compound I-34]", "values": [{"measurement": "IC50", "value": "< 1", "unit": "nM"}]}
{"smiles": "Cc1noc2c(-c3ccc(C(F)(F)F)cc3O)nnc(N[C@@H]3CCCN(CCO)C3)c12", "note": "[Compound I-256, 2-[3-methyl-4-[[(3R)-1-(2-hydroxyethyl)-3-piperidyl]amino]isoxazolo[4,5-d]pyridazin-7-yl]-5-(trifluoromethyl)phenol]", "values": [{"measurement": "IC50", "value": "10 to 100", "unit": "nM"}]}
{"smiles": "O[C@H]1CCC[C@@H](Nc2nnc(-c3ccc(C(F)(F)F)cc3OC(F)F)c3cccn23)C1", "note": "[Compound I-361, (1S,3R)-3-[[1-[2-(Difluoromethoxy)-4-(trifluoromethyl)phenyl]pyrrolo[1,2-d][1,2,4]triazin-4-yl]amino]cyclohexanol]", "values": [{"measurement": "IC50", "value": "1 to 10", "unit": "nM"}]}
{"smiles": "Cc1ccc(-c2nnc(N[C@@H]3CCCN(C)C3)c3cnccc23)c(C#N)c1", "note": "[Compound I-136]", "values": [{"measurement": "IC50", "value": "1 to 10", "unit": "nM"}]}
{"smiles": "CN1CC=C(c2ccc(-c3nnc(N[C@@H]4CCCN(C)C4)c4ccccc34)c(O)c2)C1", "note": "[Compound I-58]", "values": [{"measurement": "IC50", "value": "1 to 10", "unit": "nM"}]}
{"smiles": "OCCN1CCC[C@@H](Nc2nnc(-c3ccc(Cl)cc3C(F)F)c3cccn23)C1", "note": "[Compound I-506]", "values": [{"measurement": "IC50", "value": "10 to 100", "unit": "nM"}]}
{"smiles": "CN1C[C@@H](O)C[C@@H](Nc2nnc(-c3ccc(C(F)(F)F)cc3O)c3ccccc23)C1", "note": "[Compound I-63]", "values": [{"measurement": "IC50", "value": "1 to 10", "unit": "nM"}]}
